# Experimental data taken from patent US20110165279A1, “SWEET POTATO TRYPSIN INHIBITOR AND METHODS FOR TREATING INFLAMMATION AND HYPERALGESIA” (Academia Sinica Office of Public Affairs (Technology …, priority 2010, published 2011).
# How the values were obtained:
# [1] = system: hind paw edema induced by λ-carrageenan in mice; test: λ-carrageenan-induced hind paw edema test in mice; format: in vivo, mouse; details: 10 mg/kg i.p., 3, 4 and 5 hours after Carr injection; p<0.01 or p<0.001
# Description: Male ICR mice (18-25 g) were obtained from the BioLASCO Taiwan Co., Ltd. The animals were kept in plexiglass cages under a constant temperature of 22±1° C., relative humidity 55±5%, and a light regime of 12 hours dark/12 hour light for at least 2 weeks before the experiment. They were given food and water ad libitum. All experimental procedures were performed according to the NIH Guide for the Care and Use of Laboratory Animals. The placebo groups were given subcutaneous 0.1 ml/10 g saline using a bent blunted 27-gauge needle connected to a 1 ml syringe. All tests were conducted under the guidelines of the International Association for the Study of Pain [Zimmermann, M., Ethical guidelines for investigations of experimental pain in conscious animals. Pain. 1983, 16, 109-110].
# Male ICR mice (eight per group), 18 g to 25 g, were fasted for 24 hours before the experiment with free access to water. […] Paw volume was measured immediately after Carr injection and at 1, 2, 3, 4 and 5 hours intervals after the administration of the edematogenic agent using a plethysmometer (model 7159, Ugo Basile, Varese, Italy). The degree of swelling induced was evaluated by the ratio a/b, where a is the volume of the right hind paw after Carr treatment, and b is the volume of the right hind paw before Carr treatment.
# mouse hind footpad = test: Histological examination of mouse hind footpad after carrageenan (H&E, neutrophil counts); format: in vivo; details: biopsies 5 hours after Carr, IbTI 40 mg/kg, indomethacin 10 mg/kg
# Description: For histological examination, biopsies of paws were taken 5 hours after Carr injection into the plantar side of right hind paws. The tissue slices were fixed in solution with 1.85% formaldehyde and 1% acetic acid for 1 week at room temperature, then dehydrated by graded ethanol and embedded in Paraffin (Sherwood Medical, St. Louis, Mo., USA). Sections (thickness 5 μm) were deparaffinized with xylene and stained with hematoxylin and eosin. All samples were observed and photographed with BH2 Olympus microscopy (Japan). Every 3-5 tissue slices were randomly chosen from control, Carr, Indo and IbTI-treated (40 mg/kg) groups. The numbers of neutrophils were counted in each scope (400×) and average counts from 5 scopes of each tissue slice were calculated.
structure (smiles),measurement,setting,value
"COc1ccc2c(c1)c(CC(=O)O)c(C)n2C(=O)c1ccc(Cl)cc1 [Indomethacin, indomethacin]",paw edema,[1],significantly decreased paw edema
same,histological appearance of hind footpad vs Carr only,mouse hind footpad,"significantly reduced the level of hemorrhage, edema and inflammatory cell infiltration"
same,neutrophil numbers in paw tissue vs Carr-treated group,mouse hind footpad; p<0.01,significantly decreased the number of inflammatory neutrophil infiltration
